The record followed here is ChEMBL document CHEMBL1124377, “Potent and prolonged acting cyclic lactam analogues of alpha-melanotropin: design based on molecular dynamics” (J Med Chem, 1989).

The subject of assay [1] is Melanocyte-stimulating hormone receptor (Anolis carolinensis). Briefly: […] potency against Anolis carolinensis using lizard skin bioassay; effect did not continue after the removal of the compound.
The subject of assay [2] is Melanocyte-stimulating hormone receptor (Rana pipiens). Briefly: […] potency against Rana pipiens using frog skin bioassay; effect did not continue after the removal of the compound.

Regarding `CCCC[C@H](NC(C)=O)C(=O)N[C@H]1CC(=O)NCCC[C@@H](C(N)=O)NC(=O)[C@H](Cc2c[nH]c3ccccc23)NC(=O)[C@H](CCCN=C(N)N)NC(=O)[C@@H](Cc2ccccc2)NC(=O)[C@H](Cc2cnc[nH]2)NC1=O`, the Relative potency in assay [1] came to 20; in assay [2], 1.
